From US20180002288A1, “USE OF PICOLINAMIDES AS FUNGICIDES” (DOW AGROSCIENCES LLC, priority 2014, published 2018) come the findings set out here.

Read-outs that look alike come from different tables or passages of the source.

Format in all cases: in vivo
For test [1], the system named is Colletotrichum lagenarium. Briefly: Cucumber Anthracnose fungicidal activity (COLLLA). To be noted: Colletotrichum orbiculare, 24 h, high volume, 1 Day Protectant, read-out: COLLLA % Control rating. On the procedure: All fungicides were evaluated using the aforementioned method for their activity vs. all target diseases, unless stated otherwise. Wheat leaf blotch and brown rust activity were also evaluated using track spray applications, in which case the fungicides were formulated as EC formulations, containing 0.1% Trycol 5941 in the spray solutions. Wheat plants (variety Yuma) were grown from seed in a greenhouse in 50% mineral soil/50% soil-less Metro mix until the first leaf was fully emerged, with 7-10 seedlings per pot. These plants were inoculated with an aqueous spore suspension of Zymoseptoria tritici either prior to or after fungicide treatments. After inoculation the plants were kept in 100% relative humidity (one day in a dark dew chamber followed by two to three days in a lighted dew chamber at 20° C.) to permit spores to germinate and infect the leaf. The plants were then transferred to a greenhouse set at 20° C. for disease to develop. When disease symptoms were fully expressed on the 1st leaves of untreated plants, infection levels were assessed on a scale of 0 to 100 percent disease severity. Percent disease control was calculated using the ratio of disease severity on treated plants relative to untreated plants. Cucumber seedlings (variety Bush Pickle) were propagated in soil-less Metro mix, with each pot having one plant, and used in the test when 12 to 14 days old. Test plants were inoculated with an aqueous spore suspension of Colletotrichum lagenarium 24 hr after fungicide treatments. After inoculation the plants were kept in a dew room at 22° C. with 100% relative humidity for 48 hr to permit spores to germinate and infect the leaf. The plants were then transferred to a growth room set at 22° C. for disease to develop. Fungicide formulation, application and disease assessment on the sprayed leaves followed the procedures as described in the Example A.

For a further test, the system named is Zymoseptoria tritici. Briefly: Leaf Blotch of Wheat fungicidal activity (SEPTTR). To be noted: Low Volume Cereal Activity at 121.5 g/Ha.
For another test, the system named is Rhyncosporium secalis. Briefly: Barley Scald fungicidal activity (RHYNSE). Conditions: Hordeum vulgare, 24 h, high volume, 1 Day Protectant, read-out: RHYNSE % Control rating. On the procedure:
All fungicides were evaluated using the aforementioned method for their activity vs. all target diseases, unless stated otherwise. Wheat leaf blotch and brown rust activity were also evaluated using track spray applications, in which case the fungicides were formulated as EC formulations, containing 0.1% Trycol 5941 in the spray solutions. Wheat plants (variety Yuma) were grown from seed in a greenhouse in 50% mineral soil/50% soil-less Metro mix until the first leaf was fully emerged, with 7-10 seedlings per pot. These plants were inoculated with an aqueous spore suspension of Zymoseptoria tritici either prior to or after fungicide treatments. After inoculation the plants were kept in 100% relative humidity (one day in a dark dew chamber followed by two to three days in a lighted dew chamber at 20° C.) to permit spores to germinate and infect the leaf. The plants were then transferred to a greenhouse set at 20° C. for disease to develop. When disease symptoms were fully expressed on the 1st leaves of untreated plants, infection levels were assessed on a scale of 0 to 100 percent disease severity. Percent disease control was calculated using the ratio of disease severity on treated plants relative to untreated plants. Barley seedlings (variety Harrington) were propagated in soil-less Metro mix, with each pot having 8 to 12 plants, and used in the test when first leaf was fully emerged. Test plants were inoculated by an aqueous spore suspension of Rhyncosporium secalis 24 hr after fungicide treatments. After inoculation the plants were kept in a dew room at 22° C. with 100% relative humidity for 48 hr. The plants were then transferred to a greenhouse set at 20° C. for disease to develop. Fungicide formulation, application and disease assessment on the sprayed leaves followed the procedures as described in the Example A.

The next test concerns Pyricularia oryzae. Briefly: whole plant or invertebrate. Conditions: 24 h, read-out: PYRIOR % Control rating.
The test system of another test is Venturia inaequalis. Briefly: Apple Scab fungicidal activity (VENTIN). To be noted: 24 h, high volume, 1 Day Protectant, read-out: VENTIN % Control rating. The method, then: All fungicides were evaluated using the aforementioned method for their activity vs. all target diseases, unless stated otherwise. Wheat leaf blotch and brown rust activity were also evaluated using track spray applications, in which case the fungicides were formulated as EC formulations, containing 0.1% Trycol 5941 in the spray solutions. Wheat plants (variety Yuma) were grown from seed in a greenhouse in 50% mineral soil/50% soil-less Metro mix until the first leaf was fully emerged, with 7-10 seedlings per pot. These plants were inoculated with an aqueous spore suspension of Zymoseptoria tritici either prior to or after fungicide treatments. After inoculation the plants were kept in 100% relative humidity (one day in a dark dew chamber followed by two to three days in a lighted dew chamber at 20° C.) to permit spores to germinate and infect the leaf. The plants were then transferred to a greenhouse set at 20° C. for disease to develop. When disease symptoms were fully expressed on the 1st leaves of untreated plants, infection levels were assessed on a scale of 0 to 100 percent disease severity. Percent disease control was calculated using the ratio of disease severity on treated plants relative to untreated plants. […] Seedlings with two expanding young leaves at the top (older leaves at bottom of the plants were trimmed) were used in the test. Plants were inoculated with a spore suspension of Venturia inaequalis 24 hr after fungicide treatment and kept in a 22° C. dew chamber with 100% relative humidity for 48 hr, and then moved to a greenhouse set at 20° C. for disease to develop. Fungicide formulation, application and disease assessment on the sprayed leaves followed the procedures as described in the Example A.

Where [2] appears, read: 24 h, 1 Day Protectant, read-out: SEPTTR 1DP (Wheat Leaf Blotch, 1 Day Protectant).
Where [3] appears, read: 72 h, 3 Day Curative, read-out: SEPTTR 3DC (Wheat Leaf Blotch, 3 Day Curative).

On to `COc1ccnc(C(=O)N[C@@H](C)C(=O)O[C@@H](C)[C@H](Oc2ccccc2Cl)c2ccccc2)c1OC(C)=O` [Example 205], for which the values for the pest or weed control at 100 ppm (in test [1]; in the test on Rhyncosporium secalis; with Pyricularia oryzae) were > 80%, < 80% and > 80%, respectively. For the same compound, the pest or weed control at 121.5 g/ha in the test with Zymoseptoria tritici (setting [2]) and in the test on Zymoseptoria tritici (setting [3]) was > 80% in each case.
On to `COc1ccnc(C(=O)N[C@@H](C)C(=O)O[C@@H](C)[C@H](Oc2ccccc2)c2ccc(C)cc2)c1OCOC(C)=O` [Example 252], for which the pest or weed control at 100 ppm in test [1] was > 80%; with Venturia inaequalis, < 80%; in the test on Rhyncosporium secalis, > 80%; in the test with Pyricularia oryzae it was > 80%. The pest or weed control at 121.5 g/ha in the test with Zymoseptoria tritici (setting [2]) and in the test on Zymoseptoria tritici (setting [3]) was > 80% each time.
For the compound `COc1ccnc(C(=O)N[C@@H](C)C(=O)O[C@@H](C)[C@H](Oc2ccccc2)c2ccc(F)cc2C)c1OCOC(C)=O` [Example 259], the pest or weed control at 100 ppm in test [1] was > 80%; in the test with Venturia inaequalis it was < 80%; in the test with Rhyncosporium secalis, > 80%; in the test on Pyricularia oryzae, > 80%. Besides, the pest or weed control at 121.5 g/ha in the test with Zymoseptoria tritici (setting [2]) and in the test with Zymoseptoria tritici (setting [3]) was > 80% in each case.
For the compound `COc1ccnc(C(=O)N[C@@H](C)C(=O)O[C@@H](C)[C@H](Oc2ccccc2)c2ccc3ccccc3c2)c1OCOC(C)=O` [Example 263], the pest or weed control at 100 ppm in test [1] is > 80%; with Venturia inaequalis, < 80%; in the test with Rhyncosporium secalis, > 80%; with Pyricularia oryzae it was > 80%. Besides, the pest or weed control at 121.5 g/ha in the test with Zymoseptoria tritici (setting [2]) and with Zymoseptoria tritici (setting [3]) was > 80% each time.
For the compound `COc1ccnc(C(=O)N[C@@H](C)C(=O)O[C@@H](C)[C@H](Oc2ccccc2)c2ccc(F)cc2F)c1OCOC(C)=O` [Example 250], the pest or weed control at 100 ppm in test [1] was > 80%; with Rhyncosporium secalis, < 80%; in the test on Pyricularia oryzae, < 80%. The pest or weed control at 121.5 g/ha in the test on Zymoseptoria tritici (setting [2]) and in the test on Zymoseptoria tritici (setting [3]) was > 80% in each case.
`COc1ccnc(C(=O)N[C@@H](C)C(=O)O[C@@H](C)[C@H](Oc2cccc(F)c2)c2ccccc2)c1OCOC(C)=O` [Example 187]: the pest or weed control at 100 ppm (in test [1]; in the test on Rhyncosporium secalis; in the test on Pyricularia oryzae) was > 80% each time. Moreover, the pest or weed control at 121.5 g/ha with Zymoseptoria tritici (setting [2]) and in the test with Zymoseptoria tritici (setting [3]) was > 80% throughout.
For the compound `COc1ccnc(C(=O)N[C@@H](C)C(=O)O[C@@H](C)[C@H](Oc2ccc(F)cc2)c2ccccc2)c1OCOC(C)=O` [Example 237], the pest or weed control at 100 ppm was < 80% in test [1], < 80% in the test with Venturia inaequalis, > 80% in the test on Rhyncosporium secalis and > 80% in the test on Pyricularia oryzae. In addition, the pest or weed control at 121.5 g/ha in the test on Zymoseptoria tritici (setting [2]) and in the test on Zymoseptoria tritici (setting [3]) was > 80% each time.
For the compound `COc1ccnc(C(=O)N[C@@H](C)C(=O)O[C@@H](C)[C@H](Oc2cc(F)cc(Cl)c2)c2ccccc2)c1OC(C)=O` [Example 207], the pest or weed control at 100 ppm (in test [1]; in the test on Venturia inaequalis; in the test with Rhyncosporium secalis; in the test with Pyricularia oryzae) was > 80% each time. Further, the pest or weed control at 121.5 g/ha in the test on Zymoseptoria tritici (setting [2]) and in the test with Zymoseptoria tritici (setting [3]) was > 80% in each case.
As for `COc1ccnc(C(=O)N[C@@H](C)C(=O)O[C@@H](C)[C@H](Oc2ccccc2)c2ccc(F)cc2Cl)c1OCOC(C)=O` [Example 260], the pest or weed control at 100 ppm was > 80% in test [1], < 80% in the test with Venturia inaequalis, > 80% in the test with Rhyncosporium secalis and > 80% in the test with Pyricularia oryzae. Moreover, the pest or weed control at 121.5 g/ha with Zymoseptoria tritici (setting [2]) and in the test with Zymoseptoria tritici (setting [3]) was > 80% in each case.
With `COc1ccccc1[C@@H](Oc1ccccc1)[C@H](C)OC(=O)[C@H](C)NC(=O)c1nccc(OC)c1OCOC(C)=O` [Example 255], the pest or weed control at 100 ppm is > 80% in test [1], < 80% in the test on Venturia inaequalis, < 80% in the test on Rhyncosporium secalis and > 80% with Pyricularia oryzae. Besides, the pest or weed control at 121.5 g/ha in the test on Zymoseptoria tritici (setting [2]) and in the test on Zymoseptoria tritici (setting [3]) was > 80% in each case.
As to `COc1ccnc(C(=O)N[C@@H](C)C(=O)O[C@@H](C)[C@H](Oc2cccc(Cl)c2)c2ccccc2)c1OCOC(C)=O` [Example 202], the pest or weed control at 100 ppm was < 80% in test [1], < 0% in the test on Rhyncosporium secalis and < 80% in the test with Pyricularia oryzae. Moreover, the pest or weed control at 121.5 g/ha in the test with Zymoseptoria tritici (setting [2]) and in the test on Zymoseptoria tritici (setting [3]) was > 80% in each case.
In the case of `COc1ccnc(C(=O)N[C@@H](C)C(=O)O[C@@H](C)C(Oc2ccc(F)cc2)c2ccccc2)c1OC(C)=O` (stereo partly shown) [Example 236], the pest or weed control at 100 ppm is < 80% in test [1], > 80% with Venturia inaequalis, > 80% with Rhyncosporium secalis and > 80% in the test with Pyricularia oryzae. In addition, the pest or weed control at 121.5 g/ha in the test on Zymoseptoria tritici (setting [2]) and in the test with Zymoseptoria tritici (setting [3]) was > 80% in each case.
For `COc1ccnc(C(=O)N[C@@H](C)C(=O)O[C@@H](C)[C@H](Oc2ccc(F)cc2)c2ccccc2)c1OC(C)=O` [Example 235], the pest or weed control at 100 ppm is > 80% in test [1], < 80% in the test on Venturia inaequalis, > 80% in the test on Rhyncosporium secalis and > 80% in the test on Pyricularia oryzae. Besides, the pest or weed control at 121.5 g/ha in the test with Zymoseptoria tritici (setting [2]) and in the test on Zymoseptoria tritici (setting [3]) was > 80% throughout.
Regarding `COc1ccnc(C(=O)N[C@@H](C)C(=O)O[C@@H](C)[C@H](Oc2ccccc2)c2ccccc2)c1OCOC(C)=O` [Example 183], the pest or weed control at 100 ppm is > 80% in test [1], < 80% in the test on Venturia inaequalis, > 80% with Rhyncosporium secalis and > 80% in the test on Pyricularia oryzae. The pest or weed control at 121.5 g/ha in the test with Zymoseptoria tritici (setting [2]) and in the test on Zymoseptoria tritici (setting [3]) was > 80% in each case.
Regarding `COc1cc(F)ccc1[C@@H](Oc1ccccc1)[C@H](C)OC(=O)[C@H](C)NC(=O)c1nccc(OC)c1OCOC(C)=O` [Example 256], the pest or weed control at 100 ppm (in test [1]; in the test on Rhyncosporium secalis; in the test with Pyricularia oryzae) was > 80% in each case. Besides, the pest or weed control at 121.5 g/ha in the test with Zymoseptoria tritici (setting [2]) and with Zymoseptoria tritici (setting [3]) was > 80% throughout.
